Common to all, as to assay: inhibition of tumour cell growth, NCI panel, 48 h
Assay [1] concerns UACC-62 melanoma.
Assay [2] has as its system SK-MEL-2 melanoma.
The test system of assay [3] is LOX IMVI melanoma.
The test system of assay [4] is SF-268 CNS.
Assay [5] deals with UACC-257 melanoma.
Assay [6] deals with RPMI-8226 leukemia.
Assay [7] has as its system NCI-H226 lung.
Assay [8] has as its system SK-MEL-5 melanoma.
In assay [9] the test system is MDA-MB-231 breast.
For assay [10], the system named is RXF 393 renal.
Assay [11] concerns HCT-116 colon.
The test system of assay [12] is 786-0 renal.
In assay [13] the test system is SNB-75 CNS.
For assay [14], the system named is SK-OV-3 ovarian.
The subject of assay [15] is UO-31 renal.
Assay [16] deals with EKVX NSCLC.
The test system of assay [17] is SN12C renal.

Structures are written as SMILES.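 Tested at 5 concentrations; 48 h exposure; 96-well plates; endpoints linearly interpolated, else capped at highest concentration. At the TGI there is no net growth.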

Turning to `CCOP(=O)(OCC)C(NC(=O)OCC(Cl)(Cl)Cl)n1nnc(C(=O)OC)c1C(=O)OC` (stereo not given), the TGI in [1], in assay [2], in assay [3], in assay [4], in assay [5] and in assay [6] was > 100 µM each time. Besides, the TGI in assay [7], in assay [8], in assay [9], in assay [10], in assay [11] and in assay [12] was > 100 µM each time. Further, the TGI in assay [13], in assay [14], in assay [15] and in assay [16] was > 100 µM throughout.
As to `O=C(OCCN=C1c2ccccc2CCc2ccccc21)c1cc([N+](=O)[O-])cc([N+](=O)[O-])c1`, the TGI in assay [1], in [2], in assay [17], in [3], in assay [4] and in assay [5] was > 31.6 µM in each case. The TGI in assay [6] is 8.14 µM; in [7], > 31.6 µM; in [8], > 31.6 µM; in assay [9], > 31.6 µM; in [10] it was > 31.6 µM; in [11] it was > 31.6 µM. The TGI is > 31.6 µM in [12]; > 100 µM in assay [13]; > 100 µM in assay [14]; > 100 µM in assay [15]; > 31.6 µM in assay [16].
For the molecule `OC1(c2ccccc2)CC2CCC(C1)N2CCc1ccccc1` (stereo not given), the TGI in [1] was > 100 µM; in assay [2] it was > 100 µM; in assay [17] it was > 100 µM; in [3], > 100 µM; in assay [4] it was > 100 µM; in assay [5] it was 59.1 µM. In addition, the TGI is > 100 µM in [6]; > 100 µM in [7]; 28.6 µM in assay [8]; > 100 µM in assay [9]; > 100 µM in assay [10]; > 100 µM in assay [11]. Besides, the TGI in assay [12], in [13], in [14], in assay [15] and in assay [16] was > 100 µM each time.
In the case of `CCOC(=O)/C(C#N)=C/c1ccc2c(-c3c(OCC)ccc4cc(/C=C(\C#N)C(=O)OCC)ccc34)c(OCC)ccc2c1`, the TGI in assay [1], in [2], in assay [17], in [3], in assay [4] and in assay [5] was > 100 µM throughout. For the same molecule, the TGI in assay [6] is > 100 µM; in [7], > 100 µM; in assay [8], > 100 µM; in assay [9], 56.1 µM; in [10] it was > 100 µM; in assay [11] it was > 100 µM. In addition, the TGI in [12], in assay [13], in [14], in assay [15] and in assay [16] was > 100 µM throughout.
`CNc1ncnc(Sc2nc(N)nc3nc[nH]c23)c1[N+](=O)[O-]`: the TGI in assay [1] is 16.2 µM; in assay [2], 8.9 µM; in assay [17], 11.9 µM; in assay [3] it was 12.2 µM; in assay [4], > 36.5 µM; in assay [5] it was 13 µM. The TGI is 1.79 µM in [6]; > 100 µM in assay [7]; 13.4 µM in assay [8]; 20.6 µM in assay [9]; 8.06 µM in assay [10]; 11.9 µM in assay [11]. Further, the TGI is 16.5 µM in assay [12]; 2.83 µM in assay [13]; > 100 µM in [14]; 13.9 µM in assay [15]; 47 µM in assay [16].
As to `CCC1(C)C=Cc2c(cc(OC)c3c(=O)c4ccccc4n(C)c23)O1` (stereo not given), the TGI in assay [1], in assay [2], in assay [17], in assay [3], in assay [4] and in [5] was > 10 µM each time. Besides, the TGI in assay [6] is > 10 µM; in [7], > 10 µM; in [8] it was > 10 µM; in assay [9] it was > 10 µM; in assay [10], 5.52 µM; in [11], > 10 µM. The TGI was > 10 µM in assay [12]; > 10 µM in assay [13]; > 10 µM in assay [14]; 2.39 µM in assay [15]; > 10 µM in assay [16].
On to `S=c1ssc2c3ssc(=S)c3n(Cc3ccccc3)c12`, for which the TGI in [1], in assay [2], in assay [17], in assay [3], in assay [4] and in assay [5] was > 100 µM each time. Also, the TGI in assay [6] was > 100 µM; in assay [7] it was > 100 µM; in assay [8], > 100 µM; in [9], > 100 µM; in [10] it was 34.3 µM; in assay [11], > 100 µM. Further, the TGI was > 100 µM in [12]; > 100 µM in assay [13]; > 100 µM in assay [14]; 67 µM in assay [15]; > 100 µM in [16].
With `CN(C)c1nc(N(C)C)nc(N(C)C)n1`, the TGI in assay [1], in assay [2], in assay [17], in [3], in assay [4] and in assay [5] was > 150 µM throughout. The TGI was > 150 µM in assay [6]; > 150 µM in assay [7]; 136 µM in assay [8]; > 150 µM in [9]; > 150 µM in assay [10]; > 150 µM in assay [11]. Also, the TGI in [12] was > 150 µM; in assay [13], 149 µM; in assay [14], > 150 µM; in [15] it was > 150 µM; in assay [16], > 150 µM.
